The NIST ThermoML archive (doi:10.1021/je400830w)
± gives the expanded uncertainty stated by the source.

Tests used:
[1] = 100 kPa, Liquid; for viscosity: Falling or rolling sphere viscometry; for mass density: Vibrating tube method
[2] = refractive index (Na D-line) (dimensionless); details: 100 kPa, Liquid, Standard Abbe refractometry

NCCO [2-aminoethan-1-ol]
Details	mass density, [1] [kg/m3]	refractive index, [2]	viscosity, [1] [mPa·s]
298.15 K	1012.38 ± 0.25	1.45406 ± 0.00037	18.89 ± 0.18
303.15 K	1009.35 ± 0.25	1.45241 ± 0.00037	15.11 ± 0.14
313.15 K	1002.16 ± 0.24	1.449 ± 0.001	10.03 ± 0.094
323.15 K	994.4 ± 0.24	1.44522 ± 0.00037	6.983 ± 0.065
333.15 K	986.24 ± 0.24	1.44198 ± 0.00037	4.972 ± 0.047
